PMC11905058, “Novel Leech Antimicrobial Peptides, Hirunipins: Real‐Time 3D Monitoring of Antimicrobial and Antibiofilm Mechanisms Using Optical Diffraction Tomography” (Advanced Science, 2025)
Like-named read-outs stand apart in the source and are kept apart here. Residues, ends and D or L forms follow the SMILES beside them. No end group written: not given here.

Experiments:
Assay type in all cases: cell-based
[1] = system: Staphylococcus epidermidis [KCTC 1917]
Method: (§1) The MICs of the peptides were measured by the Clinical and Laboratory Standards Institute (CLSI) broth microdilution method, as outlined in a previous study.^[ [26], [27] ^]
(§2) Minimal Inhibitory Concentrations (MICs): Bacteria were grown to mid-logarithmic phase and diluted in Mueller-Hinton broth (MHB) (Difco). The bacterial suspension (1×10^6 CFU/well) was added to a 96-well microtiter plate along with a two-fold serial dilution of samples. The plate was incubated at 37 °C for 24 hours and the bacterial growth inhibition was assessed by measuring the optical density using an ELISA plate reader. The minimum inhibitory concentration (MIC) was defined as the lowest concentration of samples that prevented visible bacterial growth.

[2] = system: Pseudomonas aeruginosa [KCTC 1637]
Method: as §1, §2

[3] = system: Staphylococcus aureus [KCTC1621]
Method: as §1, §2

[4] = system: Escherichia coli [KCTC 1682]
Method: as §1, §2

[5] = CLSI broth microdilution in MHB, 1×10^6 CFU/well, 37 °C, 24 h, optical density

CC(C)C[C@H](NC(=O)[C@H](CS)NC(=O)[C@@H](NC(=O)CNC(=O)[C@H](CC(=O)O)NC(=O)[C@H](CCC(=O)O)NC(=O)[C@H](CCCCN)NC(=O)[C@H](CCCCN)NC(=O)[C@H](CS)NC(=O)[C@@H](NC(=O)[C@H](CCCNC(=N)N)NC(=O)[C@H](CCCNC(=N)N)NC(=O)[C@@H](N)CCCNC(=N)N)[C@@H](C)O)[C@@H](C)O)C(=O)NCC(=O)N[C@@H](CCCNC(=N)N)C(=O)N[C@@H](CCCCN)C(=O)N[C@H](C(=O)N[C@@H](CCC(N)=O)C(=O)N[C@@H](Cc1ccc(O)cc1)C(=O)N[C@@H](CCCCN)C(=O)N[C@@H](CCCCN)C(=O)N[C@@H](Cc1ccc(O)cc1)C(=O)N[C@@H](CC(C)C)C(=O)N[C@@H](CCC(N)=O)C(=O)N[C@@H](CCCCN)C(=O)N[C@@H](CCCCN)C(N)=O)C(C)C [LP3] (H-RRRTCKKEDGTCLGRKVQYKKYLQKK-NH2; N-terminus and C-terminus assumed)
>128 µg/mL: Minimum inhibitory concentration (MIC), Staphylococcus epidermidis [KCTC 1917] ([1]; KCTC 1917, 24 h) | Minimum inhibitory concentration (MIC), Pseudomonas aeruginosa [KCTC 1637] ([2]; KCTC 1637, 24 h) | Minimum inhibitory concentration (MIC), Staphylococcus aureus [KCTC1621] ([3]; KCTC1621, 24 h) | Minimum inhibitory concentration (MIC), Escherichia coli [KCTC 1682] ([4]; KCTC 1682, 24 h)

CC(C)C[C@H](NC(=O)[C@H](Cc1ccc(O)cc1)NC(=O)[C@H](CCCCN)NC(=O)[C@H](CCCNC(=N)N)NC(=O)[C@H](CCCNC(=N)N)NC(=O)[C@H](CCC(N)=O)NC(=O)[C@@H](NC(=O)[C@H](CC(N)=O)NC(=O)[C@H](CCCNC(=N)N)NC(=O)CNC(=O)[C@@H](NC(=O)[C@H](CS)NC(=O)[C@@H]1CCCN1C(=O)[C@H](CCCCN)NC(=O)[C@H](CO)NC(=O)[C@H](CC(N)=O)NC(=O)[C@H](CC(C)C)NC(=O)[C@H](CCCCN)NC(=O)[C@H](CS)NC(=O)[C@H](CCC(N)=O)NC(=O)[C@H](CCCNC(=N)N)NC(=O)[C@H](CCC(=O)O)NC(=O)[C@H](CCCNC(=N)N)NC(=O)[C@@H](NC(=O)[C@H](Cc1c[nH]c2ccccc12)NC(=O)[C@H](Cc1ccc(O)cc1)NC(=O)CNC(=O)[C@@H](NC(=O)[C@@H](NC(=O)[C@H](CC(=O)O)NC(=O)[C@@H](N)CCCCN)C(C)C)[C@@H](C)O)C(C)C)C(C)C)[C@@H](C)O)C(=O)N[C@@H](CC(N)=O)C(=O)N[C@@H](CCCCN)C(N)=O [LP4] (H-KDVTGYWVRERQCKLNSKPCVGRNTQRRKYLNK-NH2; N-terminus and C-terminus assumed)
>128 µg/mL: Minimum inhibitory concentration (MIC), Staphylococcus epidermidis [KCTC 1917] ([1]; KCTC 1917, 24 h) | Minimum inhibitory concentration (MIC), Pseudomonas aeruginosa [KCTC 1637] ([2]; KCTC 1637, 24 h) | Minimum inhibitory concentration (MIC), Staphylococcus aureus [KCTC1621] ([3]; KCTC1621, 24 h) | Minimum inhibitory concentration (MIC), Escherichia coli [KCTC 1682] ([4]; KCTC 1682, 24 h)

CC[C@H](C)[C@H](NC(=O)[C@H](CO)NC(=O)[C@H](CCCNC(=N)N)NC(=O)[C@H](C)N)C(=O)N[C@@H](CCCCN)C(=O)N[C@@H](CCCCN)C(=O)N[C@H](C(=O)N[C@H](C(=O)N[C@@H](Cc1ccccc1)C(=O)N[C@@H](CO)C(=O)N[C@@H](CO)C(=O)N[C@@H](CO)C(=O)N[C@@H](CO)C(=O)N[C@@H](CCCNC(=N)N)C(=O)N[C@H](C(=O)N[C@@H](CS)C(=O)N1CCC[C@H]1C(=O)N1CCC[C@H]1C(=O)N[C@@H](CC(C)C)C(=O)N[C@@H](CCCCN)C(=O)N[C@@H](CCSC)C(=O)N[C@@H](CC(C)C)C(=O)N[C@@H](CCCCN)C(=O)N[C@@H](CC(C)C)C(=O)N[C@@H](CCCNC(=N)N)C(=O)N1CCC[C@H]1C(=O)N[C@@H](CS)C(=O)N[C@@H](Cc1ccccc1)C(=O)N[C@@H](CCCCN)C(=O)N[C@@H](CCCCN)C(=O)N[C@H](C(=O)N1CCC[C@H]1C(=O)N[C@@H](CCCCN)C(=O)N[C@@H](CC(C)C)C(=O)N[C@@H](CC(=O)O)C(=O)NCC(=O)N[C@@H](CCC(N)=O)C(=O)O)C(C)C)C(C)C)[C@@H](C)CC)C(C)C [LP15] (H-ARSIKKVIFSSSSRVCPPLKMLKLRPCFKKVPKLDGQ-OH; N-terminus and C-terminus assumed)
>128 µg/mL: Minimum inhibitory concentration (MIC), Staphylococcus epidermidis [KCTC 1917] ([1]; KCTC 1917, 24 h) | Minimum inhibitory concentration (MIC), Pseudomonas aeruginosa [KCTC 1637] ([2]; KCTC 1637, 24 h) | Minimum inhibitory concentration (MIC), Staphylococcus aureus [KCTC1621] ([3]; KCTC1621, 24 h) | Minimum inhibitory concentration (MIC), Escherichia coli [KCTC 1682] ([4]; KCTC 1682, 24 h)

CC[C@H](C)[C@H](NC(=O)[C@@H]1CCCN1C(=O)[C@H](Cc1ccccc1)NC(=O)[C@H](CCC(N)=O)NC(=O)[C@H](CO)NC(=O)[C@H](CCCNC(=N)N)NC(=O)[C@@H](N)Cc1ccccc1)C(=O)N[C@@H](CS)C(=O)N[C@@H](CCCCN)C(=O)N[C@@H](CC(N)=O)C(=O)N[C@@H](CC(C)C)C(=O)N[C@H](C(=O)N[C@@H](CC(N)=O)C(=O)N[C@@H](Cc1c[nH]cn1)C(=O)N[C@H](C(=O)N[C@@H](CCCCN)C(=O)N[C@@H](Cc1ccccc1)C(=O)N[C@H](C(=O)N[C@@H](CS)C(=O)N[C@@H](CCC(N)=O)C(=O)N[C@@H](CCCCN)C(=O)N[C@@H](CCCCN)C(=O)N1CCC[C@H]1C(=O)N[C@@H](CC(C)C)C(=O)N[C@@H](CO)C(=O)N[C@@H](CCCCN)C(=O)N[C@@H](CC(C)C)C(=O)N[C@@H](CCSC)C(=O)N[C@@H](CCCCN)C(=O)N[C@@H](CS)C(=O)N[C@@H](CCCCN)C(=O)N[C@@H](CCCCN)C(=O)N[C@@H](C)C(=O)N[C@@H](CC(C)C)C(=O)N[C@@H](CC(=O)O)C(=O)N[C@@H](CCCNC(=N)N)C(=O)O)C(C)C)[C@@H](C)O)C(C)C [LP16] (H-FRSQFPICKNLVNHTKFVCQKKPLSKLMKCKKALDR-OH)
>128 µg/mL: Minimum inhibitory concentration (MIC), Staphylococcus epidermidis [KCTC 1917] ([1]; KCTC 1917, 24 h) | Minimum inhibitory concentration (MIC), Pseudomonas aeruginosa [KCTC 1637] ([2]; KCTC 1637, 24 h) | Minimum inhibitory concentration (MIC), Staphylococcus aureus [KCTC1621] ([3]; KCTC1621, 24 h) | Minimum inhibitory concentration (MIC), Escherichia coli [KCTC 1682] ([4]; KCTC 1682, 24 h)

FGQKVNCILNFICYKYLRI LV [LP2, putative AMP predicted from the Hirudo nipponia transcriptome]
>128 µg/mL: Minimum inhibitory concentration (MIC), Staphylococcus epidermidis [KCTC 1917] [1, 5] | Minimum inhibitory concentration (MIC), Pseudomonas aeruginosa [KCTC 1637] [2, 5] | Minimum inhibitory concentration (MIC), Staphylococcus aureus [KCTC1621] [3, 5] | Minimum inhibitory concentration (MIC), Escherichia coli [KCTC 1682] [4, 5]

IIIIKMHKTRKEKTQSILSAPVGLLTTL [LP7]
>128 µg/mL: Minimum inhibitory concentration (MIC), Staphylococcus epidermidis [KCTC 1917] ([1]; KCTC 1917, 24 h) | Minimum inhibitory concentration (MIC), Pseudomonas aeruginosa [KCTC 1637] ([2]; KCTC 1637, 24 h) | Minimum inhibitory concentration (MIC), Staphylococcus aureus [KCTC1621] ([3]; KCTC1621, 24 h) | Minimum inhibitory concentration (MIC), Escherichia coli [KCTC 1682] ([4]; KCTC 1682, 24 h)

KKLLKKLEKISKKKKKDKKRGRGSPMTSYAILYDGA [LP10]
>128 µg/mL: Minimum inhibitory concentration (MIC), Staphylococcus epidermidis [KCTC 1917] ([1]; KCTC 1917, 24 h) | Minimum inhibitory concentration (MIC), Pseudomonas aeruginosa [KCTC 1637] ([2]; KCTC 1637, 24 h) | Minimum inhibitory concentration (MIC), Staphylococcus aureus [KCTC1621] ([3]; KCTC1621, 24 h) | Minimum inhibitory concentration (MIC), Escherichia coli [KCTC 1682] ([4]; KCTC 1682, 24 h)

KLTPKPAKKVKKVVKF [LP1]
>128 µg/mL: Minimum inhibitory concentration (MIC), Staphylococcus epidermidis [KCTC 1917] ([1]; KCTC 1917, 24 h) | Minimum inhibitory concentration (MIC), Pseudomonas aeruginosa [KCTC 1637] ([2]; KCTC 1637, 24 h) | Minimum inhibitory concentration (MIC), Staphylococcus aureus [KCTC1621] ([3]; KCTC1621, 24 h) | Minimum inhibitory concentration (MIC), Escherichia coli [KCTC 1682] ([4]; KCTC 1682, 24 h)

LLAHVSKGFKLSMQKSKKPSLPIKT-NH2 [LP5]
>128 µg/mL: Minimum inhibitory concentration (MIC), Staphylococcus epidermidis [KCTC 1917] ([1]; KCTC 1917, 24 h) | Minimum inhibitory concentration (MIC), Pseudomonas aeruginosa [KCTC 1637] ([2]; KCTC 1637, 24 h) | Minimum inhibitory concentration (MIC), Staphylococcus aureus [KCTC1621] ([3]; KCTC1621, 24 h) | Minimum inhibitory concentration (MIC), Escherichia coli [KCTC 1682] ([4]; KCTC 1682, 24 h)

LNTPRPELSISQRLLIKNFILII-NH2 [LP14]
>128 µg/mL: Minimum inhibitory concentration (MIC), Staphylococcus epidermidis [KCTC 1917] ([1]; KCTC 1917, 24 h) | Minimum inhibitory concentration (MIC), Pseudomonas aeruginosa [KCTC 1637] ([2]; KCTC 1637, 24 h) | Minimum inhibitory concentration (MIC), Staphylococcus aureus [KCTC1621] ([3]; KCTC1621, 24 h) | Minimum inhibitory concentration (MIC), Escherichia coli [KCTC 1682] ([4]; KCTC 1682, 24 h)

LSKGGFKGKPERAMAHHLKNIRKKLSKSIMKS [LP6]
>128 µg/mL: Minimum inhibitory concentration (MIC), Staphylococcus epidermidis [KCTC 1917] ([1]; KCTC 1917, 24 h) | Minimum inhibitory concentration (MIC), Pseudomonas aeruginosa [KCTC 1637] ([2]; KCTC 1637, 24 h) | Minimum inhibitory concentration (MIC), Staphylococcus aureus [KCTC1621] ([3]; KCTC1621, 24 h) | Minimum inhibitory concentration (MIC), Escherichia coli [KCTC 1682] ([4]; KCTC 1682, 24 h)

MANPVNSIKRIIKKLKKERKCKPNL [LP18]
>128 µg/mL: Minimum inhibitory concentration (MIC), Staphylococcus epidermidis [KCTC 1917] ([1]; KCTC 1917, 24 h) | Minimum inhibitory concentration (MIC), Pseudomonas aeruginosa [KCTC 1637] ([2]; KCTC 1637, 24 h) | Minimum inhibitory concentration (MIC), Staphylococcus aureus [KCTC1621] ([3]; KCTC1621, 24 h) | Minimum inhibitory concentration (MIC), Escherichia coli [KCTC 1682] ([4]; KCTC 1682, 24 h)

NITDYNKKKVRLLPRFIFPLG-NH2 [LP13]
>128 µg/mL: Minimum inhibitory concentration (MIC), Staphylococcus epidermidis [KCTC 1917] ([1]; KCTC 1917, 24 h) | Minimum inhibitory concentration (MIC), Pseudomonas aeruginosa [KCTC 1637] ([2]; KCTC 1637, 24 h) | Minimum inhibitory concentration (MIC), Staphylococcus aureus [KCTC1621] ([3]; KCTC1621, 24 h) | Minimum inhibitory concentration (MIC), Escherichia coli [KCTC 1682] ([4]; KCTC 1682, 24 h)

PKKVRKSFKKLRNFSNKNSNIYGLPA [LP17]
>128 µg/mL: Minimum inhibitory concentration (MIC), Staphylococcus epidermidis [KCTC 1917] ([1]; KCTC 1917, 24 h) | Minimum inhibitory concentration (MIC), Pseudomonas aeruginosa [KCTC 1637] ([2]; KCTC 1637, 24 h) | Minimum inhibitory concentration (MIC), Staphylococcus aureus [KCTC1621] ([3]; KCTC1621, 24 h) | Minimum inhibitory concentration (MIC), Escherichia coli [KCTC 1682] ([4]; KCTC 1682, 24 h)
